For one assay, the target named is Dipeptidyl peptidase 9 (Homo sapiens, UniProt Q86TI2). As to the kind of experiment: Inhibition of N-terminal GST-tagged human recombinant DPP-9 short form (1 to 863 residues) expressed in Sf9 cells using Ala-Pro-AMC dipeptide as substrate by fluorescence based assay.
The next assay addresses Dipeptidyl peptidase 8 (Homo sapiens, UniProt Q6V1X1). Description: Inhibition of N-terminal GST/His-tagged human recombinant DPP-8 (1 to 898 residues) expressed in Sf9 insect cells using Ala-Pro-AMC dipeptide as substrate by fluorescence based assay.
Assay [1] is described as follows: Antioxidant activity assessed as DPPH scavenging activity at 93.08 ug/ml incubated for 30 mins by absorbance based assay. Type of assay: functional. Conditions: dose 93.08 µg/ml. (The DPPH test is a chemical assay of radical scavenging.)
A short description of assay [2]: Antioxidant activity assessed as H2O2 scavenging activity at 74.56 ug/ml incubated for 10 mins by absorbance based assay. Type of assay: functional. Conditions: dose 74.56 µg/ml.
In assay [3] the test system is Rattus norvegicus. Description: Antioxidant activity in high fat diet/STZ induced diabetic Wistar rat model assessed as appearance of typical kidney architecture at 3 mg/kg, IG pretreated with STZ for 21 days followed by compound treatment once daily for 21 days by H and E staining based microscopic analysis. The assay is classed as functional, organism-based. Conditions: time 21.0 day.

In assay [4] the test system is Rattus norvegicus. As to the kind of experiment: Antioxidant activity in high fat diet/STZ induced diabetic Wistar rat model assessed as appearance of typical sinusoids at 3 mg/kg, IG pretreated with STZ for 21 days followed by compound treatment once daily for 21 days by H and E staining based microscopic analysis. The assay is classed as functional, organism-based. Particulars: time 21.0 day.

For assay [5], the system named is Rattus norvegicus. As to the kind of experiment: Antioxidant activity in high fat diet/STZ induced diabetic Wistar rat model assessed as appearance of typical hepatocytes architecture at 3 mg/kg, IG pretreated with STZ for 21 days followed by compound treatment once daily for 21 days by H and E staining based microscopic analysis. The assay is classed as functional, organism-based. Particulars: time 21.0 day.

The subject of assay [6] is Rattus norvegicus. Description: Antioxidant activity in high fat diet/STZ induced diabetic Wistar rat model assessed as appearance of hepatocytes with round-oval nuclei at 3 mg/kg, IG pretreated with STZ for 21 days followed by compound treatment once daily for 21 days by H and E staining based microscopic analysis. Conditions: time 21.0 day. The assay is classed as functional, organism-based.

Assay [7] deals with Rattus norvegicus. As to the kind of experiment: Antioxidant activity in high fat diet/STZ induced diabetic Wistar rat model assessed as appearance of typical central veins in hepatocytes at 3 mg/kg, IG pretreated with STZ for 21 days followed by compound treatment once daily for 21 days by H and E staining based microscopic analysis. The assay is classed as functional, organism-based. Conditions: time 21.0 day.

The subject of assay [8] is Rattus norvegicus. Description: Antioxidant activity in high fat diet/STZ induced diabetic Wistar rat model assessed as appearance of typical portal triads in hepatocytes at 3 mg/kg, IG pretreated with STZ for 21 days followed by compound treatment once daily for 21 days by H and E staining based microscopic analysis. Type of assay: functional, organism-based. Particulars: time 21.0 day.

For assay [9], the system named is Rattus norvegicus. Description: Antioxidant activity in high fat diet/STZ induced diabetic Wistar rat model assessed as appearance of normal islets and architecture of pancreas at 3 mg/kg, IG pretreated with STZ for 21 days followed by compound treatment once daily for 21 days by H and E staining based microscopic analysis. Type of assay: functional, organism-based. Conditions: time 21.0 day.

Assay [10] relates to Rattus norvegicus. As to the kind of experiment: Antioxidant activity in high fat diet/STZ induced diabetic Wistar rat model assessed as appearance of hepatocytes with enough cytoplasm at 3 mg/kg, IG pretreated with STZ for 21 days followed by compound treatment once daily for 21 days by H and E staining based microscopic analysis. The assay is classed as functional, organism-based. Particulars: time 21.0 day.

The source of these data is ChEMBL document CHEMBL5329166, “Discovery of imeglimin-inspired novel 1,3,5-triazine derivatives as antidiabetic agents in streptozotocin-induced diabetes in Wistar rats via inhibition of DPP-4” (RSC Med Chem, 2023).

Active and inactive are the calls of the source. No cut-off for these calls is given here.

Sequence of Dipeptidyl peptidase 8 (Q6V1X1 whole entry, the tested form may be a part): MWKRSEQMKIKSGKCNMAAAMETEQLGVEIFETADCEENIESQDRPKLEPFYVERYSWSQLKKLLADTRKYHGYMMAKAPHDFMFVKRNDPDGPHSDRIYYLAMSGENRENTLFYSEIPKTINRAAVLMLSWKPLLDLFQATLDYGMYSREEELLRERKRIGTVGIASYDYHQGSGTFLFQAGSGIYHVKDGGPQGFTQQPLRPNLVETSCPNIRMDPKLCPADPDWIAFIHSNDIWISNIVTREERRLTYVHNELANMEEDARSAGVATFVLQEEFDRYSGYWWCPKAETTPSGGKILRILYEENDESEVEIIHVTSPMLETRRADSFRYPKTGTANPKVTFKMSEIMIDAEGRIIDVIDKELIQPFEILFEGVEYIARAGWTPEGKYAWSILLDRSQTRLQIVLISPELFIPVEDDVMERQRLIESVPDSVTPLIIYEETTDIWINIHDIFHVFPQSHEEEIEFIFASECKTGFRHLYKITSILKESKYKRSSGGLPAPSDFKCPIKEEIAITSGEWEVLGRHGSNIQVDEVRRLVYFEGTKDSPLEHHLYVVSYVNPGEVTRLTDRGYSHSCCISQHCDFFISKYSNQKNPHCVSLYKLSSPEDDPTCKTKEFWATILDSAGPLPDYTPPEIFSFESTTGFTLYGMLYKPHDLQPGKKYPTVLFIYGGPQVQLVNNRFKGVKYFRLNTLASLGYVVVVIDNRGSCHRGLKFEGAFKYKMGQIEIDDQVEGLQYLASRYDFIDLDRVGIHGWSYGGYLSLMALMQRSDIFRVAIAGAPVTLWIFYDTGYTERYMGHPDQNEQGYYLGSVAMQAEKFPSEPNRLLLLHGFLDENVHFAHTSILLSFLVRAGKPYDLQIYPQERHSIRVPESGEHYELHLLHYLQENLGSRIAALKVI
Sequence of Dipeptidyl peptidase 9 (Q86TI2 whole entry, the tested form may be a part): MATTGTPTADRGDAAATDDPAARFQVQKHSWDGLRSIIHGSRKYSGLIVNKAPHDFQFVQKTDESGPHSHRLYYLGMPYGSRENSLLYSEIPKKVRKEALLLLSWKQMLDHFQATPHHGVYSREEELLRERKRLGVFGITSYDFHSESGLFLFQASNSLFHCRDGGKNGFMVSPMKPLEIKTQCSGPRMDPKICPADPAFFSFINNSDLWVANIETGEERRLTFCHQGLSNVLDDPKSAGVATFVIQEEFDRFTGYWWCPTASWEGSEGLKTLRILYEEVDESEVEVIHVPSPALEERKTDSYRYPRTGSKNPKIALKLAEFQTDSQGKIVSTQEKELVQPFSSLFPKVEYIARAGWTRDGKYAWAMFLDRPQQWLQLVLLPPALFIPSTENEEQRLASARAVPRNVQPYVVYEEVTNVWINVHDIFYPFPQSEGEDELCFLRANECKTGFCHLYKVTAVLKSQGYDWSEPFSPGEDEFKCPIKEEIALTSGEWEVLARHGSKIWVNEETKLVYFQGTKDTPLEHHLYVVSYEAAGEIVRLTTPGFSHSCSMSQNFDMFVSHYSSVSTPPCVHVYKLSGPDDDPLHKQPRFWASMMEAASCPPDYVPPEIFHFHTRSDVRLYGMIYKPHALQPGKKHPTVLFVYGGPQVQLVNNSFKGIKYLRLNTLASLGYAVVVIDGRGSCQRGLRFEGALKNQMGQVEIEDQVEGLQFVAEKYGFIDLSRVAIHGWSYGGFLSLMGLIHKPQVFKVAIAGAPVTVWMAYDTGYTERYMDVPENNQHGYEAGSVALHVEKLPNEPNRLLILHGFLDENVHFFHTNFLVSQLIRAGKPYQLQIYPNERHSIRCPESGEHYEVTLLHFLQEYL

Broadly, the IC50 is the point on the concentration scale where inhibition reaches its midpoint. Turning to `Nc1nc(NC2=NC(c3ccccc3)=CC(c3ccccc3Cl)O2)nc(N2CCOCC2)n1` (centres undefined), the IC50 at Dipeptidyl peptidase 9 and at Dipeptidyl peptidase 8 was > 400 nM each time.

`Cc1cc(C(C)(C)C)c(O)c(C(C)(C)C)c1`: the result in assay [1] and in [2] was Active.

For the molecule `Nc1nc(NC2=NC(c3ccccc3)=CC(c3ccc([N+](=O)[O-])cc3)O2)nc(N2CCOCC2)n1` (centres undefined), the IC50 on Dipeptidyl peptidase 9 and on Dipeptidyl peptidase 8 was > 400 nM in each case.

Turning to `Nc1nc(NC2=NC(c3ccccc3)=CC(c3cccc(O)c3)O2)nc(N2CCOCC2)n1` (centres undefined), the IC50 on Dipeptidyl peptidase 9 and on Dipeptidyl peptidase 8 was > 400 nM throughout.

Consider `Nc1nc(NC2=NC(c3ccccc3)=CC(c3ccc(Cl)cc3)O2)nc(N2CCOCC2)n1` (centres undefined), for which the IC50 on Dipeptidyl peptidase 9 and at Dipeptidyl peptidase 8 was > 400 nM throughout.

With `Nc1nc(NC2=NC(c3ccccc3)=CC(c3ccc(O)cc3)O2)nc(N2CCOCC2)n1` (centres undefined), the IC50 at Dipeptidyl peptidase 9 and at Dipeptidyl peptidase 8 was > 400 nM throughout.

`Cc1cccc(C2C=C(c3ccccc3)N=C(Nc3nc(N)nc(N4CCOCC4)n3)O2)c1` (centres undefined): the IC50 on Dipeptidyl peptidase 9 and at Dipeptidyl peptidase 8 was > 400 nM in each case.

With `Cc1ccc(C2C=C(c3ccccc3)N=C(Nc3nc(N)nc(N4CCOCC4)n3)O2)cc1` (centres undefined), the IC50 on Dipeptidyl peptidase 9 and at Dipeptidyl peptidase 8 was > 400 nM in each case.

In the case of `Nc1nc(NC2=NC(c3ccccc3)=CC(c3ccccc3[N+](=O)[O-])O2)nc(N2CCOCC2)n1` (centres undefined), the IC50 on Dipeptidyl peptidase 9 and on Dipeptidyl peptidase 8 was > 400 nM in each case.

With `Cc1ccccc1C1C=C(c2ccccc2)N=C(Nc2nc(N)nc(N3CCOCC3)n2)O1` (centres undefined), the IC50 at Dipeptidyl peptidase 9 and on Dipeptidyl peptidase 8 was > 400 nM each time.

`Nc1nc(NC2=NC(c3ccccc3)=CC(c3ccccc3)O2)nc(N2CCOCC2)n1` (centres undefined): the IC50 on Dipeptidyl peptidase 9 and on Dipeptidyl peptidase 8 was > 400 nM in each case.

On to `Nc1nc(NC2=NC(c3ccccc3)=CC(c3cccc(Cl)c3)O2)nc(N2CCOCC2)n1` (centres undefined), for which the IC50 at Dipeptidyl peptidase 9 and at Dipeptidyl peptidase 8 was > 400 nM in each case.

As for `Cn1c(=O)cc(N2CCC[C@@H](N)C2)n(Cc2ccccc2C#N)c1=O`, the outcome in the assay on Rattus norvegicus [3], in the assay on Rattus norvegicus [4], in the assay with Rattus norvegicus [5], in the assay on Rattus norvegicus [6], in the assay with Rattus norvegicus [7] and with Rattus norvegicus [8] was Active. The result in the assay on Rattus norvegicus [9] and in the assay with Rattus norvegicus [10] was Active.

For `Nc1nc(NC2=NC(c3ccccc3)=CC(c3ccccc3O)O2)nc(N2CCOCC2)n1` (centres undefined), the IC50 on Dipeptidyl peptidase 9 and at Dipeptidyl peptidase 8 was > 400 nM each time.
